The values below come from ChEMBL document CHEMBL1201862, “PubChem BioAssay data set” (2004).

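Compound exposure: 48 hours, 5 concentrations, 96-well plates. At the GI50, growth is halved.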 Activity calls are given as the source filed them. No stated cut-off is given here; in the data, active = GI50 up to about 1.1 µM and inactive = higher.

Test systems include A549; ACHN; DU-145; HCT-116; HL-60; HOP-62; HT-29; IGROV-1; KM12; LOX IMVI; MDA-N; NCI-H522; NCI/ADR-RES; OVCAR-5; OVCAR-8; SK-MEL-28; SW-620; TK-10; UACC-257; SR.
Test in all cases: DTP human tumour cell line panel, 48 h

As for `NC(Cc1ccc(S(=O)(=O)O)cc1)C(=O)NC(Cc1ccc(S(=O)(=O)O)cc1)C(=O)NC(Cc1ccc(S(=O)(=O)O)cc1)C(=O)NC(Cc1ccc(S(=O)(=O)O)cc1)C(=O)O` (configuration not stated), the GI50 was > 100 µM (inactive) in the assay on A549; > 100 µM (inactive) in the assay on ACHN; > 100 µM (inactive) in the assay with DU-145; > 100 µM (inactive) with HCT-116; > 10 µM (inactive) in the assay on HL-60; > 100 µM (inactive) in the assay on HOP-62. Besides, the GI50 is > 100 µM (inactive) in the assay on HT-29; > 100 µM (inactive) in the assay with IGROV-1; 3.92 µM (inactive) in the assay on KM12; > 100 µM (inactive) with LOX IMVI; > 100 µM (inactive) with MDA-N; > 100 µM (inactive) with NCI-H522. Besides, the GI50 in the assay with NCI/ADR-RES, with OVCAR-5, in the assay on OVCAR-8, with SK-MEL-28, in the assay on SW-620 and in the assay on TK-10 was > 100 µM (inactive) in each case. The GI50 in the assay on UACC-257 was > 100 µM (inactive).
With `COC(=O)C(Cc1ccccc1)NC(=O)CNC(=O)CSc1nnc(COc2ccc(Cl)cc2)n1-c1ccccc1` (configuration not stated), the GI50 is 17.8 µM (inactive) in the assay with A549; 14.2 µM (inactive) in the assay with ACHN; 17.5 µM (inactive) in the assay with DU-145; 17.8 µM (inactive) in the assay on HCT-116; 4.8 µM (inactive) with HL-60; 17.7 µM (inactive) in the assay on HOP-62. For the same molecule, the GI50 in the assay on HT-29 was 18.8 µM (inactive); in the assay on IGROV-1, 15.4 µM (inactive); in the assay with KM12 it was 18.7 µM (inactive); in the assay with LOX IMVI, 3.69 µM (inactive); in the assay on NCI-H522 it was 2.27 µM (inactive); in the assay on NCI/ADR-RES it was 20 µM (inactive). Besides, the GI50 is 18.7 µM (inactive) in the assay with OVCAR-5; 13.7 µM (inactive) with OVCAR-8; 18 µM (inactive) with SK-MEL-28; 2.64 µM (inactive) in the assay with SR; 20.4 µM (inactive) in the assay on SW-620; 14.5 µM (inactive) in the assay on TK-10. Also, in the assay with UACC-257, the GI50 was 15.2 µM (inactive).
Regarding `O=C1OC(=O)c2cc(S(=O)(=O)c3ccc4c(c3)C(=O)OC4=O)ccc21`, the GI50 with A549, in the assay on ACHN, in the assay on DU-145, with HCT-116, in the assay with HOP-62 and with HT-29 was > 100 µM (inactive) each time. Moreover, the GI50 with IGROV-1, in the assay with KM12, in the assay on LOX IMVI, in the assay with MDA-N, in the assay on NCI-H522 and in the assay with NCI/ADR-RES was > 100 µM (inactive) throughout. The GI50 with OVCAR-5, in the assay with OVCAR-8, in the assay with SK-MEL-28, with SW-620, with TK-10 and with UACC-257 was > 100 µM (inactive) in each case.
For `C=C(C)[C@@H]1CCC2=C[C@@H](OC2=O)[C@@H](C(=C)C)C2=CC(C(=O)O)=C(C1)O2`, the GI50 with A549 was > 100 µM (inactive); with ACHN it was > 100 µM (inactive); in the assay on DU-145, > 100 µM (inactive); with HCT-116, 60.4 µM (inactive); in the assay on HL-60, 78 µM (inactive); in the assay on HOP-62, > 100 µM (inactive). The GI50 is > 100 µM (inactive) in the assay with HT-29; > 100 µM (inactive) in the assay with IGROV-1; 80.2 µM (inactive) in the assay on KM12; 42 µM (inactive) with LOX IMVI; > 100 µM (inactive) in the assay on MDA-N; > 100 µM (inactive) in the assay on NCI-H522. Moreover, the GI50 in the assay with NCI/ADR-RES, in the assay with OVCAR-5, in the assay with OVCAR-8, in the assay with SW-620, in the assay on TK-10 and in the assay with UACC-257 was > 100 µM (inactive) each time.
Regarding `COc1ccc2c(N=[N+]=[N-])c(-c3ccccc3)c(=O)oc2c1`, the GI50 was 48.4 µM (inactive) in the assay with A549; 41.1 µM (inactive) in the assay on ACHN; 65.6 µM (inactive) in the assay on DU-145; 44.3 µM (inactive) in the assay on HCT-116; 22.5 µM (inactive) with HL-60; > 100 µM (inactive) in the assay with HOP-62. Further, the GI50 is 32.1 µM (inactive) in the assay on HT-29; > 100 µM (inactive) with IGROV-1; 34.5 µM (inactive) with KM12; 82.8 µM (inactive) in the assay with LOX IMVI; 48.8 µM (inactive) with MDA-N; 26.1 µM (inactive) in the assay on NCI-H522. Also, the GI50 in the assay on OVCAR-8 was 77.1 µM (inactive); in the assay with SK-MEL-28, > 100 µM (inactive); in the assay with SR it was 22.2 µM (inactive); in the assay on SW-620, > 100 µM (inactive); with TK-10, 87.5 µM (inactive); in the assay with UACC-257, 29.6 µM (inactive).
Turning to `CN1CCC2(CC1)C(=O)N(NC(N)=O)C(=O)C2c1ccccc1` (configuration not stated), the GI50 in the assay on A549, with ACHN, with DU-145, in the assay with HCT-116, with HL-60 and in the assay with HOP-62 was > 100 µM (inactive) throughout. In addition, the GI50 in the assay with HT-29, in the assay on IGROV-1, in the assay with KM12, with LOX IMVI, in the assay on MDA-N and in the assay on NCI/ADR-RES was > 100 µM (inactive) in each case. Moreover, the GI50 in the assay with OVCAR-5, in the assay with OVCAR-8, in the assay with SK-MEL-28, in the assay on SW-620, in the assay on TK-10 and with UACC-257 was > 100 µM (inactive) in each case.
For the molecule `CCOP(=O)(OCC)/C(=C\N1C(=O)CC(=O)NC1=S)C(=O)OC`, the GI50 in the assay on A549, in the assay with ACHN, in the assay with DU-145, in the assay on HCT-116, in the assay on HL-60 and in the assay with HOP-62 was > 100 µM (inactive) in each case. For the same molecule, the GI50 in the assay with HT-29, in the assay with IGROV-1, in the assay with KM12, in the assay with LOX IMVI, in the assay on MDA-N and in the assay on NCI/ADR-RES was > 100 µM (inactive) each time. The GI50 in the assay on OVCAR-5, in the assay on OVCAR-8, in the assay on SK-MEL-28, in the assay with SW-620, in the assay with TK-10 and with UACC-257 was > 100 µM (inactive) throughout.
Consider `CCN(CC)CCC(=O)N1C/C(=C/c2ccccc2)C(=O)/C(=C\c2ccccc2)C1`, for which the GI50 was 4.76 µM (inactive) in the assay on A549; 2.78 µM (inactive) in the assay on ACHN; 3.15 µM (inactive) with DU-145; 0.321 µM (active) with HCT-116; 0.383 µM (active) in the assay with HL-60; 13.2 µM (inactive) in the assay with HOP-62. Also, the GI50 was 0.811 µM (active) in the assay with HT-29; 3.03 µM (inactive) in the assay on IGROV-1; 0.541 µM (active) in the assay on KM12; 0.415 µM (active) in the assay on LOX IMVI; 0.865 µM (active) with MDA-N; 0.746 µM (active) in the assay with NCI-H522. Besides, the GI50 in the assay with OVCAR-5 was 3.45 µM (inactive); in the assay on OVCAR-8, 1.35 µM (inactive); with SK-MEL-28, 1.82 µM (inactive); in the assay with SR, 0.344 µM (active); with SW-620 it was 0.195 µM (active); in the assay on TK-10 it was 6.58 µM (inactive). Besides, the GI50 with UACC-257 was 2.1 µM (inactive).
For `O=C(O)Cc1ccc(Oc2nc3ccccc3nc2-c2ccccc2)cc1`, the GI50 in the assay with A549 was 57.8 µM (inactive); in the assay on ACHN, 51.4 µM (inactive); in the assay with DU-145 it was 69.7 µM (inactive); in the assay with HCT-116, 85.7 µM (inactive); with HL-60, 67.8 µM (inactive); in the assay with HOP-62 it was > 100 µM (inactive). Moreover, the GI50 with HT-29 was 61.9 µM (inactive); in the assay with IGROV-1, 45.9 µM (inactive); with KM12, 60.5 µM (inactive); in the assay with LOX IMVI, 60.3 µM (inactive); with NCI-H522 it was 42.1 µM (inactive); in the assay with NCI/ADR-RES, 99.5 µM (inactive). Moreover, the GI50 is > 100 µM (inactive) with OVCAR-5; > 100 µM (inactive) in the assay on OVCAR-8; 90.6 µM (inactive) in the assay on SK-MEL-28; 4.22 µM (inactive) with SR; 63.1 µM (inactive) in the assay on SW-620; 97.9 µM (inactive) in the assay with TK-10. In addition, in the assay with UACC-257, the GI50 is > 100 µM (inactive).
Take `COc1ccc(N2C(=O)C3c4[nH]c5c(C)cccc5c4C4CCC(c5ccccc5)CC4C3C2=O)cc1` (configuration not stated): the GI50 was 8.57 µM (inactive) in the assay on A549; 19.7 µM (inactive) in the assay on ACHN; 11.7 µM (inactive) in the assay with DU-145; 13.4 µM (inactive) with HCT-116; 14 µM (inactive) in the assay on HOP-62; 3.21 µM (inactive) in the assay with HT-29. Moreover, the GI50 is 13.7 µM (inactive) in the assay with IGROV-1; 12.6 µM (inactive) with KM12; 13.8 µM (inactive) in the assay with LOX IMVI; 13.5 µM (inactive) in the assay with MDA-N; 3.9 µM (inactive) in the assay on NCI-H522; 30.3 µM (inactive) with NCI/ADR-RES. Further, the GI50 with OVCAR-5 was 15.5 µM (inactive); in the assay with OVCAR-8, 15.6 µM (inactive); in the assay with SK-MEL-28, 12 µM (inactive); with SW-620, 9.23 µM (inactive); in the assay with TK-10, 32.1 µM (inactive); with UACC-257, 16.8 µM (inactive).
Take `[N-]=[N+]=Nc1cccc(-c2nnc(Cl)cc2O)c1`: the GI50 with A549, with ACHN, in the assay on DU-145, in the assay on HCT-116, in the assay on HL-60 and in the assay with HOP-62 was > 100 µM (inactive) in each case. Also, the GI50 in the assay with HT-29, in the assay on IGROV-1, with KM12, in the assay on LOX IMVI, with NCI-H522 and with NCI/ADR-RES was > 100 µM (inactive) each time. The GI50 in the assay on OVCAR-8, in the assay with SK-MEL-28, in the assay with SR, in the assay on SW-620, with TK-10 and in the assay on UACC-257 was > 100 µM (inactive) throughout.
